Assay results taken from patent US9469650B2, “Melampomagnolide B derivatives” (BOARD OF TRUSTEES OF THE UNIVERSITY OF ARKANSAS, priority 2013, dated 2016).

Key:
NCI-H23 = test: panel of 60 human tumor cell lines, growth inhibition (Non-Small Cell Lung Cancer); details: NCI-H23
KM12 = test: panel of 60 human tumor cell lines, growth inhibition (Colon Cancer)
TK-10 = test: panel of 60 human tumor cell lines, growth inhibition (Renal Cancer); details: for GI50: TK-10, TK-10; for Percent Growth: TK-10
MDA-MB-468 = test: panel of 60 human tumor cell lines, growth inhibition (Breast Cancer)
MOLT-4 = test: panel of 60 human tumor cell lines, growth inhibition (Leukemia)
MDA-MB-435 = test: panel of 60 human tumor cell lines, growth inhibition (Melanoma)
NCI/ADR-RES = test: panel of 60 human tumor cell lines, growth inhibition (Ovarian Cancer)
NCI-H460 = test: panel of 60 human tumor cell lines, growth inhibition (Non-Small Cell Lung Cancer)
SK-MEL-5 = test: panel of 60 human tumor cell lines, growth inhibition (Melanoma); details: for Percent Growth: 8K-MEL-5
HS 578T = test: panel of 60 human tumor cell lines, growth inhibition (Breast Cancer); details: for Percent Growth: HS 578T

With `C=C1C(=O)O[C@H]2[C@H]1CC/C(COC(=O)NCCc1ccccn1)=C\CC[C@@]1(C)O[C@@H]21` [JVM 61, ((1aR,7aS,10aS,10bS,E)-1a-methyl-8-methylene-9-oxo-1a,2,3,6,7,7a,8,9,10a,10b-decahydrooxireno[2′,3′:9,10]cyclodeca[1,2-b]furan-5-yl)methyl-(2-(pyridin-2-yl)ethyl)carbamate] the “Percent Growth” value (NCI-H23; Log10 Concentration −5.0) was 56%, the “Percent Growth” value (NCI-H23; Log10 Concentration −6.0) was 100% and the “Percent Growth” value (NCI-H23; Log10 Concentration −7.0) was 101%. The “Percent Growth” value (NCI-H23; Log10 Concentration −8.0) was 104%, the GI50 (KM12; Homo sapiens, KM12) was 16.5 µM and the CC50 (KM12; Homo sapiens, KM12, read-out: LC50) was 62.2 µM. The TGI (KM12; KM12) was 3.21E−5, the “Percent Growth” value (KM12; KM12, Log10 Concentration −4.0) was −86% and the “Percent Growth” value (KM12; KM12, Log10 Concentration −5.0) was 88%. For the same compound, the “Percent Growth” value (KM12; KM12, Log10 Concentration −6.0) was 103%, the “Percent Growth” value (KM12; KM12, Log10 Concentration −7.0) was 107% and the “Percent Growth” value (KM12; KM12, Log10 Concentration −8.0) was 105%. For the same compound, the GI50 (TK-10; Homo sapiens) was 3.13 µM, the GI50 (TK-10; Homo sapiens, 5-dose assay) was 3.78 µM and the CC50 (TK-10; Homo sapiens, TK-10, read-out: LC50) was 37.5 µM. The IC (TGI) (TK-10; Homo sapiens, TK-10, read-out: TGI) was 12.9 µM, the “Percent Growth” value (TK-10; Log10 Concentration −4.0) was −96% and the “Percent Growth” value (TK-10; Log10 Concentration −5.0) was 12%. The “Percent Growth” value (TK-10; Log10 Concentration −6.0) was 102%, the “Percent Growth” value (TK-10; Log10 Concentration −7.0) was 104% and the “Percent Growth” value (TK-10; Log10 Concentration −8.0) was 101%. It also gave a GI50 (MDA-MB-468; Homo sapiens, MDA-MB-468) of 3.22 µM, a CC50 (MDA-MB-468; Homo sapiens, MDA-MB-468, read-out: LC50) of 64.5 µM and an IC (TGI) (MDA-MB-468; Homo sapiens, MDA-MB-468, read-out: TGI) of 16.4 µM. The “Percent Growth” value (MDA-MB-468; MDA-MB-468, Log10 Concentration −4.0) was −66%, the “Percent Growth” value (MDA-MB-468; MDA-MB-468, Log10 Concentration −5.0) was 18% and the “Percent Growth” value (MDA-MB-468; MDA-MB-468, Log10 Concentration −6.0) was 83%. The “Percent Growth” value (MDA-MB-468; MDA-MB-468, Log10 Concentration −7.0) was 89%, the “Percent Growth” value (MDA-MB-468; MDA-MB-468, Log10 Concentration −8.0) was 95% and the GI50 (MOLT-4; Homo sapiens, MOLT-4) was 5.54 µM. The CC50 (MOLT-4; Homo sapiens, MOLT-4, read-out: LC50) was > 100 µM, the IC (TGI) (MOLT-4; Homo sapiens, MOLT-4, read-out: TGI) was 25 µM and the “Percent Growth” value (MOLT-4; MOLT-4, Log10 Concentration −4.0) was −47%. For the same compound, the “Percent Growth” value (MOLT-4; MOLT-4, Log10 Concentration −5.0) was 31%, the “Percent Growth” value (MOLT-4; MOLT-4, Log10 Concentration −6.0) was 105% and the “Percent Growth” value (MOLT-4; MOLT-4, Log10 Concentration −7.0) was 106%. For the same compound, the “Percent Growth” value (MOLT-4; MOLT-4, Log10 Concentration −8.0) was 106%, the GI50 (MDA-MB-435; Homo sapiens, MDA-MB-435) was 6.01 µM and the CC50 (MDA-MB-435; Homo sapiens, MDA-MB-435, read-out: LC50) was 82.4 µM. For the same compound, the IC (TGI) (MDA-MB-435; Homo sapiens, MDA-MB-435, read-out: TGI) was 24.7 µM, the “Percent Growth” value (MDA-MB-435; MDA-MB-435, Log10 Concentration −4.0) was −58% and the “Percent Growth” value (MDA-MB-435; MDA-MB-435, Log10 Concentration −5.0) was 38%. For the same compound, the “Percent Growth” value (MDA-MB-435; MDA-MB-435, Log10 Concentration −6.0) was 94%, the “Percent Growth” value (MDA-MB-435; MDA-MB-435, Log10 Concentration −7.0) was 94% and the “Percent Growth” value (MDA-MB-435; MDA-MB-435, Log10 Concentration −8.0) was 97%. The GI50 (NCI/ADR-RES; Homo sapiens) was 20.1 µM, the CC50 (NCI/ADR-RES; Homo sapiens, read-out: LC50) was > 100 µM and the IC (TGI) (NCI/ADR-RES; Homo sapiens, read-out: TGI) was 54.7 µM. For the same compound, the “Percent Growth” value (NCI/ADR-RES; Log10 Concentration −4.0) was −30%, the “Percent Growth” value (NCI/ADR-RES; Log10 Concentration −5.0) was 85% and the “Percent Growth” value (NCI/ADR-RES; Log10 Concentration −6.0) was 106%. For the same compound, the “Percent Growth” value (NCI/ADR-RES; Log10 Concentration −7.0) was 106%, the “Percent Growth” value (NCI/ADR-RES; Log10 Concentration −8.0) was 105% and the GI50 (NCI-H460; Homo sapiens, NCI-H460) was 14.4 µM. For the same compound, the CC50 (NCI-H460; Homo sapiens, NCI-H460, read-out: LC50) was 97.4 µM, the IC (TGI) (NCI-H460; Homo sapiens, NCI-H460, read-out: TGI) was 37.5 µM and the “Percent Growth” value (NCI-H460; NCI-H460, Log10 Concentration −4.0) was −51%. For the same compound, the “Percent Growth” value (NCI-H460; NCI-H460, Log10 Concentration −5.0) was 69%, the “Percent Growth” value (NCI-H460; NCI-H460, Log10 Concentration −6.0) was 102% and the “Percent Growth” value (NCI-H460; NCI-H460, Log10 Concentration −7.0) was 102%. For the same compound, the “Percent Growth” value (NCI-H460; NCI-H460, Log10 Concentration −8.0) was 104%, the “Percent Growth” value (SK-MEL-5; Log10 Concentration −4.0) was −94% and the “Percent Growth” value (SK-MEL-5; Log10 Concentration −5.0) was 50%. The “Percent Growth” value (SK-MEL-5; Log10 Concentration −6.0) was 96%, the “Percent Growth” value (SK-MEL-5; Log10 Concentration −7.0) was 95% and the “Percent Growth” value (SK-MEL-5; Log10 Concentration −8.0) was 96%. The GI50 (SK-MEL-5; Homo sapiens, SK-MEL-5) was 9.78 µM, the CC50 (SK-MEL-5; Homo sapiens, SK-MEL-5, read-out: LC50) was 49.1 µM and the IC (TGI) (SK-MEL-5; Homo sapiens, SK-MEL-5, read-out: TGI) was 22.1 µM. The “Percent Growth” value (HS 578T; Log10 Concentration −4.0) was −25%, the “Percent Growth” value (HS 578T; Log10 Concentration −5.0) was 28% and the “Percent Growth” value (HS 578T; Log10 Concentration −6.0) was 94%. The “Percent Growth” value (HS 578T; Log10 Concentration −7.0) was 96%, the “Percent Growth” value (HS 578T; Log10 Concentration −8.0) was 98% and the GI50 (HS 578T; Homo sapiens, Hs-578T) was 4.66 µM. The CC50 (HS 578T; Homo sapiens, Hs-578T, read-out: LC50) was ≥ 100 µM and the IC (TGI) (HS 578T; Homo sapiens, Hs-578T, read-out: TGI) was 33.9 µM.
